Results from patent US9005575B2, “Arg-Gly-Asp-conjugated alpha-melanocyte stimulating hormone hybrid peptide for use in diagnosing and treating melanoma, including metastatic melanoma and methods related to same” (STC.UNM, priority 2009, dated 2015).
Where two headings read alike, the source gives them in different places. Positions of bridges follow the written chain, without caps; N, C: chain ends. Non-standard residues stand in square brackets, D forms with d. Residues, ends and D or L forms follow the SMILES beside them.

How the values were obtained:
B16/F1 melanoma cells = test: Clonogenic cytotoxicity; type: cell-based, murine; settings: 6 days post the treatment; for Decrease in clonogenic survival compared to untreated group: 0.1 μM (100 nM), 3 h incubation
Experimental: To determine whether the replacement of the Lys linker with Arg linker affected the clonogenic cytotoxicity of the hybrid peptide, we examined the clonogenic cytotoxic effect of RGD-Arg-(Arg^11)CCMSH in B16/F1 melanoma cells according to our published procedure (17). The B16/F1 cells were seeded in a 6-well plate (200 cells/well) and incubated at 37° C. overnight. […] Control cells were only incubated in the culture medium. After the incubation, the cells were washed with PBS twice and allowed to form colonies over 6 days in the culture medium. The medium was changed every other day. After 6 days, the cells were fixed with methanol:glacial acetic acid (3:1), stained with hematoxylin and visually examined under microscope for survival. Colonies contained more than 50 cells were scored as survivors.

[1] = test system: B16/F1 murine melanoma cells; test: Specificity of cellular uptake (peptide blockade); type: cell-based; settings: 0.1 μM of blocking peptide, 25° C., 120 min
Experimental: The specificity of cell binding was determined by incubating ^99mTc-RGD-Lys-(Arg^11)CCMSH with or without non-radioactive peptides. After being washed once with binding media, B16/F1 cells in 24-well cell culture plates were incubated with approximately 200,000 cpm of HPLC purified ^99mTc-RGD-Lys-(Arg^11)CCMSH at 25° C. for 120 min (n=4) in the presence of 0.1 μM of RGD-Lys-(Arg^11)CCMSH, NDP-MSH, (Arg^11)CCMSH or RGD in 0.5 ml of binding media, respectively. The reaction media were aspirated after the incubation. The cells were rinsed twice with 0.5 ml of ice-cold pH 7.4, 0.2% BSA/0.01 M PBS and lysed in 0.5 ml of 1 N NaOH for 5 min. The activities associated with cells were measured in a gamma counter. Statistical analysis was performed using the Student's t-test for unpaired data.
The specificity of cellular uptake was determined by incubating ^99mTc-RGD-Arg-(Arg^11)CCMSH with or without non-radioactive peptides. After being washed once with binding medium, B16/F1 cells in 24-well cell culture plates were incubated with approximately 200,000 cpm of HPLC purified ^99mTc-RGD-Arg-(Arg^11)CCMSH at 25° C. for 120 min (n=3) in the presence of 0.1 μM of RGD-Arg-(Arg^11)CCMSH, (Arg^11)CCMSH, RGD or no peptide blockade in 0.5 mL of binding medium, respectively. The reaction medium was aspirated after the incubation. The cells were rinsed twice with 0.5 mL of ice-cold pH 7.4, 0.2% BSA/0.01 M PBS and lysed in 0.5 mL of 1 N NaOH for 5 min. The activities associated with cells were measured in a gamma counter.

MC1 receptor [2] = biological target: T1, MC1 receptor (Mus musculus, UniProt Q01727); settings: literature value (ref. 8); read-out: MC1 receptor binding affinity; cited from earlier work
T1 construct: host or cells: B16/F1 murine melanoma cells
T1 sequence (Q01727 whole entry): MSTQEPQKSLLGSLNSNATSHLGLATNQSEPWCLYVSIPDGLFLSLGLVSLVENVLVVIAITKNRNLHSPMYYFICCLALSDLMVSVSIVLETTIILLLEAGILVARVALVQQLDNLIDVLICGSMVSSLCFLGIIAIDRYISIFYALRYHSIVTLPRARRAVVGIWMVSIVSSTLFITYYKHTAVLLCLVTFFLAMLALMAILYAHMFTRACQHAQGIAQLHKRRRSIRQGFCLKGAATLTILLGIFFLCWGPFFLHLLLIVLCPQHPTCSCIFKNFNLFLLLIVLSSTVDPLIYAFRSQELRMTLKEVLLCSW

MC1 receptor [3] = biological target: T1, MC1 receptor; test: In vitro competitive binding assay in B16/F1 melanoma cells; parameters: species or system murine; settings: competition with ^125I-(Tyr^2)-NDP-MSH, 25° C., 2 h, read-out: IC50 value (MC1 receptor binding affinity)
Experimental: The IC50 value of RGD-Lys-(Arg^11)CCMSH was determined according to our previously published procedure (27). B16/F1 cells were harvested and seeded into a 24-well cell culture plate (5×10^5/well) and incubated at 37° C. overnight. After being washed with binding media (MEM with 25 mM HEPES, pH 7.4, 0.2% BSA, 0.3 mM 1,10-phenathroline), the cells were incubated at room temperature (25° C.) for 2 h with approximately 40,000 counts per minute (cpm) of ^125I-(Tyr^2)-NDP-MSH in the presence of increasing concentrations (10^−12 to 10^−5 M) of RGD-Lys-(Arg^11)CCMSH in 0.3 ml of binding media. The reaction media were aspirated after the incubation. […] The activities associated with cells were measured in a Wallac 1480 automated gamma counter (PerkinElmer, NJ). The IC50 value for the peptide was calculated by fitting the data with nonlinear regression using Prism software (GraphPad Software, La Jolla, Calif.).
The IC50 value of RGD-Arg-(Arg^11)CCMSH was determined according to our previously published procedure (17). […] The activities associated with cells were measured in a Wallac 1480 automated gamma counter (PerkinElmer, NJ). The IC50 value for the peptide was calculated using Prism software (GraphPad Software, La Jolla, Calif.).

Molecule | Decrease of clonogenic survival compared to untreated control (B16/F1 melanoma cells; 93 μmol, single treatment (3 h incubation), unpublished preliminary studies) [%] | Decrease of cellular uptake of ^99mTc-RGD-Arg-(Arg^11)CCMSH by peptide blockade [1] | Decrease of cellular uptake of ^99mTc-RGD-Lys-(Arg^11)CCMSH by peptide blockade [1] | Decrease in clonogenic survival compared to untreated group (B16/F1 melanoma cells) [%] | IC50 (MC1 receptor [2]) [nM] | IC50 (MC1 receptor [3]) [nM]
CC(C)[C@H](NC(=O)[C@@H]1CCCN1C(=O)[C@H](CCCNC(=N)N)NC(=O)[C@H](CS)NC(=O)[C@H](Cc1c[nH]c2ccccc12)NC(=O)[C@H](CCCNC(=N)N)NC(=O)[C@@H](Cc1ccccc1)NC(=O)[C@H](Cc1c[nH]cn1)NC(=O)[C@H](CCC(=O)O)NC(=O)[C@H](CS)NC(=O)[C@H](CS)NC(=O)[C@H](CCCCN)NC(=O)[C@@H]1CC(=O)N[C@@H](CCCNC(=N)N)C(=O)NCC(=O)N[C@@H](CC(=O)O)C(=O)N[C@H](Cc2ccc(O)cc2)C(=O)N1)C(N)=O [RGD-Lys-(Arg^11)CCMSH] (RGD[dY]DKCCEH[dF]RWCRPV-NH2; lactam N-5; C-terminus assumed) | 65 | – | – | – | – | –
Cyclo(Arg-Gly-Asp-DPhe-Val) [RGD, reference compound] | – | didn't reduce | didn't reduce | 7 | – | –
[Cys^3,4,10, D-Phe^7, Arg^11]α-MSH3-13 [(Arg^11)CCMSH, reference compound] | – | 78% | – | 11 | 1.7 | –
CC(C)[C@H](NC(=O)[C@@H]1CCCN1C(=O)[C@H](CCCNC(=N)N)NC(=O)[C@H](CS)NC(=O)[C@H](Cc1c[nH]c2ccccc12)NC(=O)[C@H](CCCNC(=N)N)NC(=O)[C@@H](Cc1ccccc1)NC(=O)[C@H](Cc1c[nH]cn1)NC(=O)[C@H](CCC(=O)O)NC(=O)[C@H](CS)NC(=O)[C@H](CS)NC(=O)[C@H](CCCNC(=N)N)NC(=O)[C@@H]1CC(=O)N[C@@H](CCCNC(=N)N)C(=O)NCC(=O)N[C@@H](CC(=O)O)C(=O)N[C@H](Cc2ccc(O)cc2)C(=O)N1)C(N)=O [RGD-Arg-(Arg^11)CCMSH] (RGD[dY]DRCCEH[dF]RWCRPV-NH2; lactam N-5; C-terminus assumed) | – | 76% | – | 62 | – | 0.7
